Data: the METLIN SMRT retention time set (Domingo-Almenara et al. 2019)

Assay: gradient 5% acetonitrile 3 min, to 50% in 2 min, to 85% in 15 min, held 3 min, 100 µL/min
Conditions: column: Zorbax Extend-C18 2.1 x 50 mm; eluents: water / acetonitrile, 0.1% formic acid
Summary of the method: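 In both positive and negative ionization mode, a quadrupole time-of-flight mass spectrometer coupled to HPLC analyzed pure standards run in mixtures of ~100 molecules. The Zorbax Extend-C18 column (2.1 × 50 mm, 1.8 μm) was operated at 100 μL/min with water and acetonitrile, each containing 0.1% formic acid. The dead volume was 40 μL and the dwell volume 900 μL. Retention time came from adduct peaks that were computationally picked and individually inspected by hand.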

Compound | RP-LC retention time [s]
COc1ccc(S(=O)(=O)N2CCCC(C(=O)Nc3cccc(SC)c3)C2)cc1Cl (configuration not stated) | 1060
Cc1nc([C@@H]2CN(Cc3ccc(Br)o3)C[C@H]2C(N)=O)n[nH]1 | 556
CCc1cccc(NC(=O)Cn2c(N)nc(C)cc2=O)c1 | 618
CCSc1nnc(-c2nn(C)c3c2CN(C(=O)CCc2ccccc2)CC3)n1C | 767
O=C(c1ccn2c(-c3ccc(Cl)cc3)nnc2c1)N1CCN(c2ccccn2)CC1 | 596
CC(Cc1ccco1)NC(=O)Cn1c(=O)c(=O)n(C)c2ncccc21 (configuration not stated) | 688
O=C(NC1CCN(c2cc(-c3cccs3)[nH]n2)C1)c1cc(Cl)ccc1F (configuration not stated) | 800
COCCn1cc2c3c(cccc31)CN(C(=O)NCc1ccc(OC)cc1)CC2 | 822
Cc1ccc2c(c1)N(S(C)(=O)=O)CCC(C(=O)Nc1ccc(OC(C)C)cc1)O2 (configuration not stated) | 976
COc1cc(OC)c(NC(=O)Cc2cn3cc(F)ccc3n2)cc1Cl | 637
COc1c(C(=O)N2CCN(CC(C)C)CC2)sc2cc(Cl)ccc12 | 697
CCC(C)NC(=O)CCC(=O)N1CCc2c(c(C(=O)N3CCCCC3)nn2C)C1 (configuration not stated) | 645
Cc1nc2cccnc2n1CCN1CCN(C(=O)Nc2cccc(Br)c2)CC1 | 607
Cn1cc(CN2CCC(C(=O)NC3CCCC3)CC2)c2cc(Cl)ccc21 | 692
COCc1nncn1C1CCN(S(=O)(=O)c2ccc(C)cc2C)CC1 | 743
CCOC(=O)c1c(CN2CCN(C)CC2)n(-c2ccccc2)c2cc(Br)c(OC)cc12 | 850
Cc1cc2[nH]c(C(=O)Nc3cc(F)c(F)cc3F)c(CN3CCCC3)c2s1 | 864
CCCOc1nccnc1N1CCC(NC(=O)c2ccoc2)C1 (configuration not stated) | 585
Cc1cc(C)n(-c2ccc(N3CCN(C(=O)c4ccc(S(N)(=O)=O)cc4)CC3)nn2)n1 | 620
Cn1nc(C(=O)N2CCN(c3cc(-c4ccccc4)ncn3)CC2)ccc1=O | 547
COc1ccc(NC(=O)Cn2nc(N3CCCC3)c3ccccc3c2=O)cc1 | 847
O=C(Nc1ccc2c(c1)CCC2)C1CC(=O)N(CCc2c[nH]c3ccc(Cl)cc23)C1 (configuration not stated) | 921
CN(CC(=O)O)c1nc2c(F)cccc2s1 | 689
CCOC(=O)c1nc(NCCc2ccccc2Cl)c2c(C)noc2n1 | 904

Compound | RP-LC retention time [s]
CCCN1C(=O)c2cccnc2Sc2cc(C(=O)N3CCCCC3)ccc21 | 772
CC1=C(c2cccc(Cl)c2)S(=O)(=O)N=C1N1CCCN(C(=O)C2CC2)CC1 | 763
CCC1CN2C=NC(N3CCN(C(=O)Nc4ccc(OC)c(F)c4)CC3)=CC2=N1 (configuration not stated) | 622
CC(=O)Nc1ccc(NC(=O)C2CCCN(c3ccc(=O)n(-c4ccc(C)c(Cl)c4)n3)C2)cc1 (configuration not stated) | 768
O=C(CSc1nc(N2CCCCC2)nc2ccccc12)Nc1ccc2c(c1)OCO2 | 694
CCn1cnnc1C1CCCCN1S(=O)(=O)c1cccc(F)c1 (configuration not stated) | 716
Cc1cc(C)cc(S(=O)(=O)N2CCc3c(c(-c4nnc(-c5ccccc5)o4)nn3C)C2)c1 | 1020
CC(=O)N1CCc2cc(N3CC(C(=O)Nc4ccc5c(c4)OCCO5)CC3=O)ccc21 (configuration not stated) | 667
CC(=O)Nc1ccc(-c2noc(C3CCN(C(=O)C4(c5ccccc5)CC4)CC3)n2)cc1 | 837
CCN1c2ccccc2C(=O)NC12CCN(C(=O)NCc1ccccc1)CC2 | 881
O=c1ccc(N2CCCN(S(=O)(=O)c3cccc(Cl)c3)CC2)nn1-c1ccccc1 | 868
CCN1C(=O)CCc2cc(NC(=O)CCc3ccccc3OC)ccc21 | 787
CCC(C)NC(=O)C1CCN(S(=O)(=O)c2c(C)nn(CC(=O)Nc3ccc(C)cc3)c2C)CC1 (configuration not stated) | 806
COc1ccc(S(=O)(=O)N2CCCC(C(=O)Nc3cccc(SC)c3)C2)cc1C (configuration not stated) | 1030
O=C(c1ccncc1)N1CCCC(c2nc(-c3ccc(F)cc3)n[nH]2)C1 (configuration not stated) | 614
CCCCN(C)c1nc(-c2ccc([N+](=O)[O-])cc2)nc2ccccc12 | 883
Cc1cnc(C(=O)N2CCCCCCNC(=O)[C@@H]3CCCC[C@@H]32)cn1 | 694
C=CCN1CC(c2nc3ccccc3n2CC(O)COc2cc(C)ccc2C)CC1=O (configuration not stated) | 664
O=c1c2cnn(-c3ccc(F)cc3)c2ncn1Cc1nc(-c2cccc(Br)c2)no1 | 1130
CCOc1ccc(-c2csc(NC(=O)CCCOc3ccc(OC)cc3)n2)cc1 | 1080
CCC1CCCCN1C(=O)Cc1c(C)nn(-c2nc(-c3ccc(C)cc3)cs2)c1C (configuration not stated) | 1380
CCc1nc(-c2csc(S(=O)(=O)N3CCCC(C(=O)NCc4ccccc4)C3)c2)no1 (configuration not stated) | 960
Cn1nc(-c2nc(-c3ccccc3F)no2)c2c1CCN(C(=O)NC1CCCC1)C2 | 800
CCc1noc(NC(C)=O)c1-c1ccc(OC)c(S(=O)(=O)Nc2cccc(C#N)c2)c1 | 738

Results, then the compound that gave them:

RP-LC retention time [s] | Compound
772 | COc1cc2c(cc1OC)C1C(C(=O)Nc3ccc4c(c3)OCCO4)c3ccccc3C(=O)N1CC2 (configuration not stated)
652 | CC(C)n1nnc2cc(S(=O)(=O)N3CCCC(C(=O)N4CCC(C(N)=O)CC4)C3)ccc21 (configuration not stated)
795 | CC(=O)c1ccc(S(=O)(=O)NCCC2CCN(C(=O)c3ccc(F)cc3)CC2)cc1
732 | COc1ccc(-n2nc3c(N4CCCC(C(=O)NC5CCCCC5)C4)nnc(C)c3c2C)cc1 (configuration not stated)
695 | CSc1nnc(-c2nn(C)c3c2CN(C(=O)c2c(F)cccc2F)CC3)n1C
735 | Cc1nc(Nc2ccc(Br)cn2)sc1C(=O)NC1CC1
744 | O=c1n(CCOc2ccc(F)cc2)nc2c(S(=O)(=O)N3CCCCCC3)cccn12
770 | CCOC(=O)Cn1c(C2CC(=O)N(c3ccccc3)C2)nc2ccccc21 (configuration not stated)
783 | CC(C)n1cnc2ccc(-c3noc(COc4ccc(F)cc4)n3)cc21
784 | O=C(NCc1ccc(F)cc1F)c1ccc(OCC(=O)C2CC2)cc1
1310 | CCCN(CCC)S(=O)(=O)c1ccc(C(=O)Nc2nc3c(s2)CCc2ccccc2-3)cc1
1100 | CCc1ccc(NC(=O)Cn2c(=O)cc(-c3nc(C(C)C)no3)c3ccccc32)cc1
702 | CCn1cc(S(=O)(=O)N2CCCN(S(=O)(=O)c3ccccc3)CCC(=O)NCC2)cn1
848 | COc1ccc(NC(=O)C(C)C2CCN(C(=O)Nc3ccc(C)cc3)CC2)c(OC)c1 (configuration not stated)
658 | COCc1nc2cccnc2n1C1CCN(C(=O)Nc2ccc3c(c2)OCO3)CC1
831 | CCCCn1nc2c(S(=O)(=O)N3CCCCC3)cccn2c1=O
623 | CCn1ccc(-c2nc(-c3ccc4c(c3)nnn4CCN3CCCCC3)no2)n1
939 | Cc1ccc(S(=O)(=O)Nc2ccc3c(c2)CCC(=O)N3CC(C)C)cc1C
1070 | Cc1cc(C)cc(NC(=O)Cc2csc3nc(-c4cccc(Cl)c4)cn23)c1
656 | COC[C@@H]1CN(Cc2cccc(OC)c2OC)C[C@H]1c1ccncc1

RP-LC retention time [s] | Compound
1010 | CCOC(=O)c1noc2ncnc(N3CCN(c4ccc(F)cc4)CC3)c12
752 | COc1ccc(CNC(=O)C2CCN(c3ncnc4c3oc3ccccc34)CC2)c(OC)c1
1070 | COc1cccc(C(=O)Nc2nc(-c3ccc(OC)c([N+](=O)[O-])c3)c(C)s2)c1
996 | Cc1c(-c2noc(-c3ccc4cc[nH]c4c3)n2)nnn1-c1ccc(F)cc1
698 | COc1cccc(NC(=O)NCCn2c(C(F)(F)F)nc3cccnc32)c1
688 | CCn1cnc(S(=O)(=O)N2CCC(C(=O)Nc3ccc4c(c3)OCO4)CC2)c1
619 | C#CCC(Cc1cnc2nc(N)nc(N)c2n1)c1ccc(C(=O)N[C@@H](CCC(=O)O)C(=O)O)cc1 (some centres not stated)
869 | COC(=O)C1=CN(c2cccc(F)c2)c2cc(F)ccc2S1(=O)=O
851 | CSc1ccccc1NS(=O)(=O)c1cc2c(s1)CCN(C(=O)C1CC1)C2
698 | O=C(CCNc1c(-c2ccccc2)nc2cnccn12)NCc1ccccc1F
774 | COc1ccccc1C(=O)NC1(C(F)(F)F)C(=O)N(CC2CCCO2)C(C)=C1C(C)=O (configuration not stated)
1000 | CC(C)Sc1nnc(N2CCN(c3ccc(F)cc3)CC2)s1
684 | COC(=O)C1=CCCCCC(N2CCOCC2)=C1C(=O)OC
810 | CC1CCCCN1c1ccn2c(=O)n(CC(=O)Nc3cc(F)cc(F)c3)nc2n1 (configuration not stated)
1010 | COC(=O)C1=C(C)N(C2CCCC2)C(=O)C1(NC(=O)c1cccc(OC)c1)C(F)(F)F (configuration not stated)
664 | CCN1C(=O)COc2ccc(-c3csc(NC(=O)CCc4ccccc4)n3)cc21
749 | Cn1c(C(=O)N2CCN(c3ccccn3)CC2)cc2c(-c3cccs3)nn(-c3ccccc3)c21
669 | O=C(CC1CCN(C(=O)c2cc3cc(Cl)ccc3[nH]2)CC1)N1CCN(c2ccccn2)CC1
1120 | Cc1ccc(-c2nc(-c3ccc4c(c3)oc(=O)n4C)no2)cc1
